# Assay results: patent US12458651B2, “Compounds and their uses for alleviating menopause-associated symptoms” (ESTETRA SRL, priority 2018, dated 2025)
# Tests used:
# Type in all cases: in vivo
# post-menopausal women [1] = test: Dose-finding study: hot flush weekly weighted score
# Experimental: Further, the terms “Hot Flush Weekly Weighted Score”, as used herein, corresponds to a score taking into account frequency and severity which is calculated by using the severity score (as calculated above): [(1×No. of mild VMS)+(2×No. of moderate VMS)+(3×No. of severe VMS)] during a 7 day period.
# Such a weighted score was for example used by Notelovitz et al. (“Initial 17β-Estradiol Dose for Treating Vasomotor Symptoms”; Obstetrics and Gynaecology, Vol. 95(5), May 2000, p. 726-731). This score was used to generate the data included in Example 1 further below, under section A. c) “Hot Flush Weekly Weighted Score”.
# post-menopausal women [2] = test: GSM symptom (VVA self-assessment): vaginal dryness
# Experimental: Change from baseline to week 12 in the following GSM symptoms (VVA subject self-assessment) were recorded: • a) Vaginal dryness (sensation of dryness or burning in the vagina; none=0 mild=1, moderate=2 or severe=3): […]
# post-menopausal women [3] = test: GSM symptom: vaginal pain associated with sexual activity
# Experimental: Change from baseline to week 12 in the following GSM symptoms (VVA subject self-assessment) were recorded: • a) Vaginal dryness (sensation of dryness or burning in the vagina; none=0 mild=1, moderate=2 or severe=3):
# • d) Vaginal pain associated with sexual activity (sensation of pain with sexual intercourse none=0, mild=1, moderate=2 or severe=3): […]
# post-menopausal women [4] = test: Adverse events (AEs, TEAEs) in the dose-finding study
# From the text: This is confirmed by the following statistical analysis. Using a Poisson regression model with a random effect for the patient and treatment group as a covariate to model the count of TEAEs in the different treatment groups, it can be shown that there is no statistical difference between the treatment groups (p value of 0.099). Second, a chi-square test was used to assess if the prevalence of patients reporting TEAEs in each treatment group was similar. No statistical difference was found between the treatment groups (p value of 0.575).
structure (smiles),measurement,setting,value
"C[C@]12CC[C@@H]3c4ccc(O)cc4CC[C@H]3[C@@H]1[C@@H](O)[C@@H](O)[C@@H]2O [Estetrol, 1,3,5 (10)-estratrien-3,15alpha,16alpha,17beta-tetrol]","Relative change (% from baseline) in hot flush weekly weighted score, mean (section B analysis)","post-menopausal women [1]; 10 mg per day, week 9",−66%
same,"Relative change (% from baseline) in hot flush weekly weighted score, mean (section B analysis)","post-menopausal women [1]; 10 mg per day, week 10",−68%
same,"Relative change (% from baseline) in hot flush weekly weighted score, mean (section B analysis)","post-menopausal women [1]; 10 mg per day, week 11",−68%
same,"Relative change (% from baseline) in hot flush weekly weighted score, mean (section B analysis)","post-menopausal women [1]; 10 mg per day, week 12",−69%
same,"Relative change (% from baseline) in hot flush weekly weighted score, mean","post-menopausal women [1]; 15 mg per day, week 0",0%
same,"Relative change (% from baseline) in hot flush weekly weighted score, mean (section B analysis)","post-menopausal women [1]; 15 mg per day, week 0",0%
same,"Relative change (% from baseline) in hot flush weekly weighted score, mean (section B analysis)","post-menopausal women [1]; 15 mg per day, week 1",−22%
same,"Relative change (% from baseline) in hot flush weekly weighted score, mean (section B analysis)","post-menopausal women [1]; 15 mg per day, week 2",−45%
same,"Relative change (% from baseline) in hot flush weekly weighted score, mean (section B analysis)","post-menopausal women [1]; 15 mg per day, week 3",−56%
same,"Relative change (% from baseline) in hot flush weekly weighted score, mean (section B analysis)","post-menopausal women [1]; 15 mg per day, week 4",−66%
same,"Relative change (% from baseline) in hot flush weekly weighted score, mean (section B analysis)","post-menopausal women [1]; 15 mg per day, week 5",−70%
same,"Relative change (% from baseline) in hot flush weekly weighted score, mean (section B analysis)","post-menopausal women [1]; 15 mg per day, week 6",−72%
same,"Relative change (% from baseline) in hot flush weekly weighted score, mean (section B analysis)","post-menopausal women [1]; 15 mg per day, week 7",−75%
same,"Relative change (% from baseline) in hot flush weekly weighted score, mean (section B analysis)","post-menopausal women [1]; 15 mg per day, week 8",−76%
same,"Relative change (% from baseline) in hot flush weekly weighted score, mean (section B analysis)","post-menopausal women [1]; 15 mg per day, week 9",−78%
same,"Relative change (% from baseline) in hot flush weekly weighted score, mean (section B analysis)","post-menopausal women [1]; 15 mg per day, week 10",−77%
same,"Relative change (% from baseline) in hot flush weekly weighted score, mean (section B analysis)","post-menopausal women [1]; 15 mg per day, week 11",−79%
same,"Relative change (% from baseline) in hot flush weekly weighted score, mean (section B analysis)","post-menopausal women [1]; 15 mg per day, week 12",−81%
same,"Vaginal dryness score (none=0 to severe=3), mean ± SD","post-menopausal women [2]; E4 2.5 mg, Baseline",1 ± 0.90
same,"Vaginal dryness score (none=0 to severe=3), mean ± SD","post-menopausal women [2]; E4 2.5 mg, Week 12",0.5 ± 0.77
same,"Vaginal dryness score (none=0 to severe=3), mean ± SD","post-menopausal women [2]; E4 5 mg, Baseline",1.3 ± 0.94
same,"Vaginal dryness score (none=0 to severe=3), mean ± SD","post-menopausal women [2]; E4 5 mg, Week 12",0.7 ± 0.86
same,"Vaginal dryness score (none=0 to severe=3), mean ± SD","post-menopausal women [2]; E4 10 mg, Baseline",1 ± 0.93
same,"Vaginal dryness score (none=0 to severe=3), mean ± SD","post-menopausal women [2]; E4 10 mg, Week 12",0.5 ± 0.75
same,"Vaginal dryness score (none=0 to severe=3), mean ± SD","post-menopausal women [2]; E4 15 mg, Baseline",1.1 ± 1.04
same,"Vaginal dryness score (none=0 to severe=3), mean ± SD","post-menopausal women [2]; E4 15 mg, Week 12",0.5 ± 0.68
same,"Vaginal pain associated with sexual activity score (none=0 to severe=3), mean ± SD","post-menopausal women [3]; E4 2.5 mg, Baseline",0.6 ± 0.77
same,"Vaginal pain associated with sexual activity score (none=0 to severe=3), mean ± SD","post-menopausal women [3]; E4 2.5 mg, Week 12",0.3 ± 0.73
same,"Vaginal pain associated with sexual activity score (none=0 to severe=3), mean ± SD","post-menopausal women [3]; E4 5 mg, Baseline",1 ± 1.07
same,"Vaginal pain associated with sexual activity score (none=0 to severe=3), mean ± SD","post-menopausal women [3]; E4 5 mg, Week 12",0.5 ± 0.78
same,"Vaginal pain associated with sexual activity score (none=0 to severe=3), mean ± SD","post-menopausal women [3]; E4 10 mg, Baseline",0.6 ± 0.77
same,"Vaginal pain associated with sexual activity score (none=0 to severe=3), mean ± SD","post-menopausal women [3]; E4 10 mg, Week 12",0.2 ± 0.36
same,"Vaginal pain associated with sexual activity score (none=0 to severe=3), mean ± SD","post-menopausal women [3]; E4 15 mg, Baseline",0.7 ± 0.90
same,"Vaginal pain associated with sexual activity score (none=0 to severe=3), mean ± SD","post-menopausal women [3]; E4 15 mg, Week 12",0.3 ± 0.54
same,Percentage of patients with TEAE leading to Study Discontinuation,post-menopausal women [4]; 2.5 mg group,1.9%
same,Percentage of patients with severe TEAE,post-menopausal women [4]; 2.5 mg group,7.7%
same,Percentage of patients with TEAE leading to Study Discontinuation,post-menopausal women [4]; 5 mg group,6.4%
same,Percentage of patients with severe TEAE,post-menopausal women [4]; 5 mg group,10.6%
same,Average AEs per patient (patients who had AEs),post-menopausal women [4]; 10 mg group,3.2
same,Percentage of patients with TEAE leading to Study Discontinuation,post-menopausal women [4]; 10 mg group,5.6%
same,Percentage of patients with severe TEAE,post-menopausal women [4]; 10 mg group,7.4%
same,Average AEs per patient (patients who had AEs),post-menopausal women [4]; 15 mg group,2.6
same,Percentage of patients with TEAE leading to Study Discontinuation,post-menopausal women [4]; 15 mg group,4.1%
same,Percentage of patients with severe TEAE,post-menopausal women [4]; 15 mg group,6.1%
